Data on 13 molecules can be found in US20240116985A1, “STAPLED PEPTIDES AND METHODS THEREOF” (priority 2020, published 2024).

In assay [1] the target is T1, full-length beta-Catenin (Uniprot ID P35222) (Homo sapiens, UniProt P35222).
T1 construct: 10 nM full-length beta-Catenin (Uniprot ID P35222)
T1 sequence (P35222 1-781): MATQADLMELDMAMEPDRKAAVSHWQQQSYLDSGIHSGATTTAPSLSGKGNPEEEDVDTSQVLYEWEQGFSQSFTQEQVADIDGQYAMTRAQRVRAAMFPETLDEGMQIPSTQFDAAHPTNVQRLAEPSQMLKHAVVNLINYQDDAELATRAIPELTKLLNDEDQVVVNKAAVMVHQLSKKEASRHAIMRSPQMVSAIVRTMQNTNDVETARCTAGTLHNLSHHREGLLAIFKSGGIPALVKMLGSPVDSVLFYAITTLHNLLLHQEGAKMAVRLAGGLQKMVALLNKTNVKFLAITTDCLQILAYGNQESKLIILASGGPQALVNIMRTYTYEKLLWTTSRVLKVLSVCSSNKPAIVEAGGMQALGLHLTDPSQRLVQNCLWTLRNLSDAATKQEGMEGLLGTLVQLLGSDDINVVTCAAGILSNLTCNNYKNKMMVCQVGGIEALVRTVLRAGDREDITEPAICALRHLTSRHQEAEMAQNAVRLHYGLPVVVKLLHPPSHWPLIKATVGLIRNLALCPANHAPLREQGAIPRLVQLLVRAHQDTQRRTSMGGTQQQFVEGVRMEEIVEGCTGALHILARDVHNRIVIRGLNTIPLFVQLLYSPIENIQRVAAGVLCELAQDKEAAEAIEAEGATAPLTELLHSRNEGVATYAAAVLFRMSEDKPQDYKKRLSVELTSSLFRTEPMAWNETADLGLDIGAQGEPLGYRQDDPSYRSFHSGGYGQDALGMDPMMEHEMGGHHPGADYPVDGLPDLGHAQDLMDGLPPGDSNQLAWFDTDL
The assay is described as follows: Fluorescence polarization IC50 (beta-catenin / 5FAM-TCF4 10-53 competition). The note with it: fluorescence polarization; read-out: beta-Catenin FP IC50. The assay is classed as binding. On the technique in general: Polarisation of emitted light reports the rotation of a fluorescent probe.

Assay [2] addresses T2, beta-catenin/TCF4 engagement (Homo sapiens, UniProt P35222).
T2 construct: expressed in transfected cells; host or cells: HEK293
T2 sequence (P35222 1-781): T1 sequence (P35222 1-781)
Description: Nano-BRET target engagement assay (B-cat-Halo & TCF4-Luc in HEK293 cells). The note with it: absolute IC50; read-out: NanoBRET Abs IC50. The format is cell-based. Background: Bioluminescence resonance energy transfer reports proximity on the nanometre scale.

In general, IC50 refers to the point on the concentration scale where inhibition reaches its midpoint.

Regarding `CC(=O)N1CCC[C@]12CC=CCCCC1(CCCC=CCCCOC(=O)N3CC[C@@](C(=O)N[C@@H](Cc4ccsc4)C(=O)N[C@@H](Cc4csc5ccccc45)C(=O)N[C@@H](CCC(=O)N4CCC(N5CCN(C)CC5)CC4)C(N)=O)(C3)NC(=O)[C@H](CC(C)C)NC(=O)[C@H](Cc3ccccc3)NC(=O)[C@H](C)NC(=O)[C@H](C)NC(=O)[C@H](CN(CC(=O)O)CC(F)(F)F)NC(=O)[C@H](CC(=O)O)NC1=O)NC(=O)[C@H](CC(C)(C)C)NC(=O)[C@H](CC(=O)O)NC2=O` (stereo partly drawn) [I-1802, Ac-PL3-Asp-Npg-B5-Asp-TfeGA-Ala-Ala-Phe-Leu-PyrS2-3Thi-BztA-[4MePpzPip]GlnR-NH2], the IC50 in assay [1] turned out to be 11 nM; in assay [2], 25200 nM.
Turning to `CC(=O)N1CCC[C@]12CC=CCCCC1(CCCC=CCCCOC(=O)N3CC[C@@](C(=O)N[C@@H](Cc4ccsc4)C(=O)N[C@@H](Cc4csc5ccccc45)C(=O)N[C@@H](CCC(=O)N4CCN(CC(F)(F)F)CC4)C(N)=O)(C3)NC(=O)[C@H](CC(C)C)NC(=O)[C@H](Cc3ccccc3)NC(=O)[C@H](C)NC(=O)[C@H](C)NC(=O)[C@H](CN(CC(=O)O)CC(F)(F)F)NC(=O)[C@H](CC(=O)O)NC1=O)NC(=O)[C@H](CC(C)(C)C)NC(=O)[C@H](CC(=O)O)NC2=O` (stereo partly drawn) [I-1803, Ac-PL3-Asp-Npg-B5-Asp-TfeGA-Ala-Ala-Phe-Leu-PyrS2-3Thi-BztA-[TfePpz]GlnR-NH2], the concentration for half-maximal inhibition (IC50) came out at 20 nM in assay [1] and 7400 nM in assay [2].
For the molecule `CC(=O)N1CCC[C@]12CC=CCCCC1(CCCC=CCCCOC(=O)N3CC[C@@](C(=O)N[C@@H](Cc4ccsc4)C(=O)N[C@@H](Cc4csc5ccccc45)C(=O)N[C@@H](CCC(=O)N4CC[C@@H](N(C)C)C4)C(N)=O)(C3)NC(=O)[C@H](CC(C)C)NC(=O)[C@H](Cc3ccccc3)NC(=O)[C@H](C)NC(=O)[C@H](C)NC(=O)[C@H](CN(CC(=O)O)CC(F)(F)F)NC(=O)[C@H](CC(=O)O)NC1=O)NC(=O)[C@H](CC(C)(C)C)NC(=O)[C@H](CC(=O)O)NC2=O` (stereo partly drawn) [I-1804, Ac-PL3-Asp-Npg-B5-Asp-TfeGA-Ala-Ala-Phe-Leu-PyrS2-3Thi-BztA-[RDMAPyr]GlnR-NH2], the IC50 in assay [1] came to 8 nM; in assay [2], 9400 nM.
`CC(=O)N1CCC[C@]12CC=CCCCC1(CCCC=CCCCOC(=O)N3CC[C@@](C(=O)N[C@@H](Cc4ccsc4)C(=O)N[C@@H](Cc4csc5ccccc45)C(=O)N[C@@H](CCC(=O)N4CC[C@@H](N(C)C)C4)C(N)=O)(C3)NC(=O)[C@H](CC(C)C)NC(=O)[C@H](Cc3ccccc3)NC(=O)[C@H](C)NC(=O)[C@H](C)NC(=O)[C@H](CN(CC(=O)O)CC(F)(F)F)NC(=O)[C@H](CC(=O)O)NC1=O)NC(=O)[C@H](CC(C)(C)C)NC(=O)[C@H](CC(=O)O)NC2=O` (stereo partly drawn) [I-1805, Ac-PL3-Asp-Npg-B5-Asp-TfeGA-Ala-Ala-Phe-Leu-PyrS2-3Thi-BztA-[RDMAPyr]GlnR-NH2]: the results for the IC50 in assay [1] and in assay [2] were 6 nM and 9300 nM, respectively.
For the molecule `CC(=O)N1CCC[C@]12CCCCCCC1(CCCCCCCCOC(=O)N3CC[C@@](C(=O)N[C@@H](Cc4ccsc4)C(=O)N[C@@H](Cc4csc5ccccc45)C(=O)N[C@@H](CCC(N)=O)C(N)=O)(C3)NC(=O)[C@H](CC(C)C)NC(=O)[C@H](Cc3ccccc3)NC(=O)[C@H](C)NC(=O)[C@H](C)NC(=O)[C@H](CC(=O)O)NC(=O)[C@H](CC(=O)O)NC1=O)NC(=O)[C@H](CC(C)(C)C)NC(=O)[C@H](CC(=O)O)NC2=O` (stereo partly drawn) [I-1808, Ac-PL3-Asp-Npg-B5-Asp-Asp-Ala-Ala-Phe-Leu-PyrS2-3Thi-BztA-Gln-NH2], the IC50 in assay [1] was 90 nM; in assay [2], 14000 nM.
Consider `CC(=O)N1CCC[C@]12CC=CCCCC1(CCCC=CCCOC(=O)N3CC[C@@](C(=O)N[C@@H](Cc4ccsc4)C(=O)N[C@@H](Cc4csc5ccccc45)C(=O)N[C@@H](CCC(N)=O)C(N)=O)(C3)NC(=O)[C@H](CC(N)=O)NC(=O)[C@H](Cc3ccccc3)NC(=O)[C@H](C)NC(=O)[C@H](C)NC(=O)[C@H](CC(=O)O)NC(=O)[C@H](CC(=O)O)NC1=O)NC(=O)[C@H](CC(C)(C)C)NC(=O)[C@H](CC(=O)O)NC2=O` (stereo partly drawn) [I-1813, Ac-PL3-Asp-Npg-B5-Asp-Asp-Ala-Ala-Phe-Asn-PyrS1-3Thi-BztA-Gln-NH2], for which the IC50 is 26 nM in assay [1] and greater than 20000 nM in assay [2].
In the case of `CC(=O)N1CCC[C@]12CC=CCCCC1(CCCC=CCCOC(=O)N3CC[C@@](C(=O)N[C@@H](Cc4ccsc4)C(=O)N[C@@H](Cc4csc5ccccc45)C(=O)N[C@@H](CCC(N)=O)C(N)=O)(C3)NC(=O)[C@H](CC(C)C)NC(=O)[C@H](Cc3ccccc3)NC(=O)[C@H](C)NC(=O)[C@H](C)NC(=O)[C@H](CC(=O)O)NC(=O)[C@H](CC(=O)O)NC1=O)NC(=O)[C@H](CC(C)(C)C)NC(=O)[C@H](CC(=O)O)NC2=O` (stereo partly drawn) [I-1815, Ac-PL3-Asp-Npg-B5-Asp-Asp-Ala-Ala-Phe-Leu-PyrS1-3Thi-BztA-Gln-NH2], the IC50 in assay [1] is 46 nM; in assay [2], greater than 20000 nM.
As to `CC(=O)N1CCC[C@]12CC=CCCCC1(CCCC=CCOC(=O)N3CC[C@@](C(=O)N[C@@H](Cc4ccsc4)C(=O)N[C@@H](Cc4csc5ccccc45)C(=O)N[C@@H](CCC(N)=O)C(N)=O)(C3)NC(=O)[C@H](CC(C)C)NC(=O)[C@H](Cc3ccccc3)NC(=O)[C@H](C)NC(=O)[C@H](C)NC(=O)[C@H](CC(=O)O)NC(=O)[C@H](CC(=O)O)NC1=O)NC(=O)[C@H](CC(C)(C)C)NC(=O)[C@H](CC(=O)O)NC2=O` (stereo partly drawn) [I-1818, Ac-PL3-Asp-Npg-B5-Asp-Asp-Ala-Ala-Phe-Leu-PyrS-3Thi-BztA-Gln-NH2], the IC50 in assay [1] is 236 nM; in assay [2], greater than 20000 nM.
Regarding `CC(=O)N1CCC[C@]12CCCCCCC1(CCCCCCCOC(=O)N3CC[C@@](C(=O)N[C@@H](Cc4ccsc4)C(=O)N[C@@H](Cc4csc5ccccc45)C(=O)N[C@@H](CCC(N)=O)C(N)=O)(C3)NC(=O)[C@H](CC(N)=O)NC(=O)[C@H](Cc3ccccc3)NC(=O)[C@H](C)NC(=O)[C@H](C)NC(=O)[C@H](CC(=O)O)NC(=O)[C@H](CC(=O)O)NC1=O)NC(=O)[C@H](CC(C)(C)C)NC(=O)[C@H](CC(=O)O)NC2=O` (stereo partly drawn) [I-1821, Ac-PL3-Asp-Npg-B5-Asp-Asp-Ala-Ala-Phe-Asn-PyrS1-3Thi-BztA-Gln-NH2], the IC50 was 67 nM in assay [1] and greater than 20000 nM in assay [2].
For the molecule `CC(=O)N1CCC[C@]12CCCCCCC1(CCCCCCCOC(=O)N3CC[C@@](C(=O)N[C@@H](Cc4ccsc4)C(=O)N[C@@H](Cc4csc5ccccc45)C(=O)N[C@@H](CCC(N)=O)C(N)=O)(C3)NC(=O)[C@H](CC(C)C)NC(=O)[C@H](Cc3ccccc3)NC(=O)[C@H](C)NC(=O)[C@H](C)NC(=O)[C@H](CC(=O)O)NC(=O)[C@H](CC(=O)O)NC1=O)NC(=O)[C@H](CC(C)(C)C)NC(=O)[C@H](CC(=O)O)NC2=O` (stereo partly drawn) [I-1822, Ac-PL3-Asp-Npg-B5-Asp-Asp-Ala-Ala-Phe-Leu-PyrS1-3Thi-BztA-Gln-NH2], the IC50 in assay [1] was 60 nM; in assay [2], greater than 20000 nM.
On to `CC(=O)N1CCC[C@]12CCCCCCC1(CCCCCCOC(=O)N3CC[C@@](C(=O)N[C@@H](Cc4ccsc4)C(=O)N[C@@H](Cc4csc5ccccc45)C(=O)N[C@@H](CCC(N)=O)C(N)=O)(C3)NC(=O)[C@H](CC(N)=O)NC(=O)[C@H](Cc3ccccc3)NC(=O)[C@H](C)NC(=O)[C@H](C)NC(=O)[C@H](CC(=O)O)NC(=O)[C@H](CC(=O)O)NC1=O)NC(=O)[C@H](CC(C)(C)C)NC(=O)[C@H](CC(=O)O)NC2=O` (stereo partly drawn) [I-1823, Ac-PL3-Asp-Npg-B5-Asp-Asp-Ala-Ala-Phe-Asn-PyrS-3Thi-BztA-Gln-NH2], for which the IC50 is 41 nM in assay [1] and greater than 20000 nM in assay [2].
The corresponding values for `CC(=O)N1CCC[C@]12CCCCCCC1(CCCCCCOC(=O)N3CC[C@@](C(=O)N[C@@H](Cc4ccsc4)C(=O)N[C@@H](Cc4csc5ccccc45)C(=O)N[C@@H](CCC(N)=O)C(N)=O)(C3)NC(=O)[C@H](CC(C)C)NC(=O)[C@H](Cc3ccccc3)NC(=O)[C@H](C)NC(=O)[C@H](C)NC(=O)[C@H](CC(=O)O)NC(=O)[C@H](CC(=O)O)NC1=O)NC(=O)[C@H](CC(C)(C)C)NC(=O)[C@H](CC(=O)O)NC2=O` (stereo partly drawn) [I-1824, Ac-PL3-Asp-Npg-B5-Asp-Asp-Ala-Ala-Phe-Leu-PyrS-3Thi-BztA-Gln-NH2] are 101 nM and greater than 20000 nM.
The matching figures for `CC(=O)N1CCC[C@]12CC=CCCCC1(CCCC=CCOC(=O)N3CC(C(=O)N[C@@H](Cc4ccsc4)C(=O)N[C@@H](Cc4csc5ccccc45)C(=O)N[C@@H](CCC(N)=O)C(N)=O)(C3)NC(=O)[C@H](CC(C)C)NC(=O)[C@H](Cc3ccccc3)NC(=O)[C@H](C)NC(=O)[C@H](C)NC(=O)[C@H](CC(=O)O)NC(=O)[C@H](CC(=O)O)NC1=O)NC(=O)[C@H](CC(C)(C)C)NC(=O)[C@H](CC(=O)O)NC2=O` (stereo partly drawn) [I-1828, Ac-PL3-Asp-Npg-B5-Asp-Asp-Ala-Ala-Phe-Leu-Az-3Thi-BztA-Gln-NH2]: 264 nM and greater than 20000 nM.
